From US20260224573A1, “CRYSTAL FORM OF COMPOUND, AND PREPARATION METHOD AND USE THEREOF” (FELICAMED BIOTECHNOLOGY CO., LTD., priority 2023, published 2026)
Structures can show the parent of a compound that is named as a salt. Where two headings read alike, the source gives them in different places.

Tests used:
[1] = TGA weight loss / thermal stability; format: physicochemical; settings: for thermal stability: comparison of TGA/DSC patterns; for TGA weight loss: heated to 150° C.
Description: TGA and DSC patterns were collected on a TA Q5000 thermogravimetric analyzer and a TA Discovery 2500 differential scanning calorimeter, respectively.
TGA results were collected on a TA Discovery 5500 thermogravimetric analyzer, and DSC results were collected on a TA Discovery 2500 differential scanning calorimeter.

[2] = Pharmacokinetics of hydrochloride crystal form A in Beagle dogs; format: in vivo; settings: single i.g. 6 mg/kg
Description: In this experiment, three male Beagle dogs were randomly selected for administration. All the animals were fasted for at least 12 h before administration and were fed again 4 h after administration. […] The blood samples from the animals were collected through the jugular vein, with a blood sample volume of 0.5 mL/time. All collected whole blood samples were placed in centrifuge tubes containing EDTA-K2, and the centrifuge tubes were turned upside down to allow the anticoagulant and blood to be fully mixed. All the blood samples were placed on wet ice before centrifugation and centrifuged at 1500 g for 10 min to separate plasma. The plasma samples were transferred to sample tubes and stored at -40° C. to […] until analysis. The drug concentration in the plasma of each Beagle dog was detected by an LC-MS/MS method.

[3] = remark: listed apart in the source
Description: A method for testing the density and the tapped density included: (1) a certain mass of to-be-assessed sample was placed into a 5 mL measuring cylinder, and the volume at this moment was recorded. The bulk density was calculated by dividing the mass of the sample by the volume at this moment. (2) The measuring cylinder was slightly tapped 200 times, the final volume was recorded, and the tapped density was calculated by dividing the mass of the sample by the final volume. (3) Three parallel tests were conducted. A method for testing the angle of repose included: (1) a funnel was fixed vertically to a bottom surface, and the material was slowly placed into the funnel. (2) A well-proportioned cone of the material was formed on the bottom surface. The height and bottom surface diameter of the cone were measured. (3) Three parallel tests were conducted.

[4] = Assessment of dynamic solubility; format: physicochemical; settings: for pH of filtrate: 37° C.
[5] = Assessment of 24-h solubility in pH buffers; format: physicochemical; settings: room temperature; for FC: crystal transfer: Buffer (pH = 7.4); for solubility at 24 h: thermodynamic from solid, read-out: S: solubility, calculated as free form
[6] = remark: listed apart in the source
Description: DVS isotherms were collected on an SMS (Surface Measurement Systems) DVS Intrinsic.

[7] = listed as phosphate crystal form A
[8] = dog, plasma, po, male Beagle dogs, mean
[9] = listed as hydrochloride crystal form A

Q: With CC[S@@](=N)(=O)C[C@H]1CC[C@H](N(C)c2ncnc3[nH]ccc23)CC1 [Phosphate crystal form A] as the molecule, how does the thermal stability [1, 7] read?
A: slightly poor thermal stability

Q: What about the TGA weight loss ([1]; listed as Phosphate Crystal Form A) of the same molecule?
A: 2.82%

Q: And the TGA weight loss [1, 7]?
A: 2.82%

Q: What does the source list for CC[S@@](=N)(=O)C[C@H]1CC[C@H](N(C)c2ncnc3[nH]ccc23)CC1 [Sulfate crystal form A]?
A: thermal stability ([1]; listed as sulfate crystal form A): poor thermal stability; TGA stepwise weight loss ([1]; heated to 100° C.): 14.83%

Q: For CC[S@@](=N)(=O)C[C@H]1CC[C@H](N(C)c2ncnc3[nH]ccc23)CC1 [Hydrochloride crystal form A], which “UPLC peak Area, RRT 1.62” value (25° C./60% RH/4 weeks) is on record?
A: 0.05%

Q: What about the “UPLC peak Area, RRT 2.10” value (25° C./60% RH/4 weeks) of the same molecule?
A: 0.07%

Q: What about the “UPLC peak Area, RRT 2.19” value (25° C./60% RH/4 weeks) of the same molecule?
A: <0.05%

Q: And the “Crystal form Transform” value (25° C./60% RH/4 weeks, open)?
A: No

Q: And the “UPLC peak Area, RRT 1.00” value (40° C./75% RH/4 weeks)?
A: 99.88%

Q: What about the “UPLC peak Area, RRT 1.62” value (40° C./75% RH/4 weeks) of the same molecule?
A: 0.05%

Q: And the “UPLC peak Area, RRT 2.10” value (40° C./75% RH/4 weeks)?
A: 0.07%

Q: And the “UPLC peak Area, RRT 2.19” value (40° C./75% RH/4 weeks)?
A: <0.05%

Q: And the “Crystal form Transform” value (40° C./75% RH/4 weeks, open)?
A: No

Q: What about the Purity (40° C./75% RH/4 weeks, open) of the same molecule?
A: 99.88 area %

Q: And the “UPLC peak Area, RRT 1.62” value (80° C./1 d)?
A: 0.05%

Q: What about the “UPLC peak Area, RRT 2.10” value (80° C./1 d) of the same molecule?
A: 0.08%

Q: And the “UPLC peak Area, RRT 2.19” value (80° C./1 d)?
A: <0.05%

Q: And the “Crystal form Transform” value (80° C./1 d, closed)?
A: No

Q: What about the Purity (80° C./1 d, closed) of the same molecule?
A: 99.87 area %

Q: And the “UPLC peak Area, RRT 1.00” value (Starting)?
A: 99.82%

Q: And the “UPLC peak Area, RRT 1.62” value (Starting)?
A: 0.05%

Q: And the “UPLC peak Area, RRT 2.10” value (Starting)?
A: 0.08%

Q: What about the “UPLC peak Area, RRT 2.19” value (Starting) of the same molecule?
A: 0.06%

Q: What about the Starting purity (before storage, UPLC) of the same molecule?
A: 99.82 area %

Q: What about the AUC(0-inf) [2, 8] of the same molecule?
A: 32.1 µg·h/mL

Q: What about the AUC(0-t) [2, 8] of the same molecule?
A: 31.7 µg·h/mL

Q: What about the Cmax [2, 8] of the same molecule?
A: 5.29 µg/mL

Q: And the Tmax [2, 8]?
A: 0.417 h

Q: What about the half-life [2, 8] of the same molecule?
A: 3.59 h

Q: And the MRT inf ([2]; dog, plasma, po, male Beagle dogs, mean, read-out: MRT0-inf)?
A: 5.11 h

Q: What about the MRT last ([2]; dog, plasma, po, male Beagle dogs, mean, read-out: MRT0-t) of the same molecule?
A: 4.84 h

Q: And the clinical observation [2]?
A: no obvious abnormalities were found

Q: And the flowability ([3]; conclusion from Carr index and angle of repose)?
A: high flowability

Q: What about the Bulk density ([3]; single tests 1 to 3) of the same molecule?
A: 0.14 g/mL

Q: And the Average bulk density ([3]; three parallel tests)?
A: 0.14 g/mL

Q: What about the Average tapped density ([3]; three parallel tests, tapped 200 times) of the same molecule?
A: 0.24 g/mL

Q: What about the pH of filtrate ([4]; FaSSIF, 1 h) of the same molecule?
A: 5.0

Q: What about the pH of filtrate ([4]; FaSSIF, 4 h) of the same molecule?
A: 5.1

Q: What about the pH of filtrate ([4]; FeSSIF, 2 h) of the same molecule?
A: 4.9

Q: And the pH of filtrate ([4]; FeSSIF, 4 h)?
A: 4.9

Q: What about the pH of filtrate ([4]; H2O, 1 h) of the same molecule?
A: 4.0

Q: What about the pH of filtrate ([4]; H2O, 2 h) of the same molecule?
A: 4.0

Q: And the pH of filtrate ([4]; H2O, 4 h)?
A: 4.0

Q: What about the solubility ([4]; H2O, SGF, FaSSIF and FeSSIF, 37 °C, water, thermodynamic from solid, in H2O, fully soluble) of the same molecule?
A: > 9 mg/mL

Q: What about the pH of filtrate ([4]; SGF, 1 h) of the same molecule?
A: 2.9

Q: And the pH of filtrate ([4]; SGF, 4 h)?
A: 3.0

Q: What about the “FC: crystal transfer” value [5] of the same molecule?
A: Yes

Q: What about the “FC: crystal transfer” value [5, 9] of the same molecule?
A: transformed into the free crystal form A

Q: What about the solubility at 24 h ([5]; buffer pH 2.0, pH 2, aqueous buffer, Buffer (pH = 2.0)) of the same molecule?
A: > 9.2 mg/mL

Q: And the solubility at 24 h ([5]; buffer pH 4.5, pH 4.5, aqueous buffer, Buffer (pH = 4.5))?
A: > 9.2 mg/mL

Q: And the thermal stability [1]?
A: high

Q: And the TGA weight loss ([1]; listed as Hydrochloride Crystal Form A)?
A: 0.53%

Q: What about the TGA weight loss [1, 9] of the same molecule?
A: 0.53%

Q: What about the hygroscopicity ([6]; 25° C./80% RH) of the same molecule?
A: slight hygroscopicity

Q: And the “Crystal transformation after DVS” value ([6]; XRPD before and after DVS)?
A: No
